# Molecular target: T1, USP1/UAF1 (Homo sapiens, UniProt O94782)
# T1 construct: purchased R&D Systems
# Test: Deubiquitination assay for USP1/UAF1 (ubiquitin-rhodamine 110 substrate)
# Type: biochemical
# Details: 0.5 nM USP1/UAF1, 150 nM ubiquitin-rhodamine, 50% inhibition compared to DMSO control
# Description: Deubiquitination assay for USP1/UAF1: compounds described here were tested for their ability to inhibit USP1 deubiquitinase activity in this assay using ubiquitin-rhodamine 110 as the substrate. The assay was conducted in the assay buffer (50 mM Tris-HCl, pH 7.8, 0.5 mM EDTA, 0.1 mg/ml Bovine Serum Albumin, 1 mM DTT, 0.01% Tween-20) in 384 well plates. 0.5 nM USP1/UAF1 (R&D Systems) was incubated with compounds in dose response format for 10 minutes at room temperature. Then the reaction was initiated by addition of 150 nM ubiquitin-rhodamine (R&D Systems). The fluorescence intensity was read after 45 minutes at Ex488/Em535 by CLARIOstar (BMG Labtech). IC50 response curves were plotted.
# T1 sequence (O94782 whole entry): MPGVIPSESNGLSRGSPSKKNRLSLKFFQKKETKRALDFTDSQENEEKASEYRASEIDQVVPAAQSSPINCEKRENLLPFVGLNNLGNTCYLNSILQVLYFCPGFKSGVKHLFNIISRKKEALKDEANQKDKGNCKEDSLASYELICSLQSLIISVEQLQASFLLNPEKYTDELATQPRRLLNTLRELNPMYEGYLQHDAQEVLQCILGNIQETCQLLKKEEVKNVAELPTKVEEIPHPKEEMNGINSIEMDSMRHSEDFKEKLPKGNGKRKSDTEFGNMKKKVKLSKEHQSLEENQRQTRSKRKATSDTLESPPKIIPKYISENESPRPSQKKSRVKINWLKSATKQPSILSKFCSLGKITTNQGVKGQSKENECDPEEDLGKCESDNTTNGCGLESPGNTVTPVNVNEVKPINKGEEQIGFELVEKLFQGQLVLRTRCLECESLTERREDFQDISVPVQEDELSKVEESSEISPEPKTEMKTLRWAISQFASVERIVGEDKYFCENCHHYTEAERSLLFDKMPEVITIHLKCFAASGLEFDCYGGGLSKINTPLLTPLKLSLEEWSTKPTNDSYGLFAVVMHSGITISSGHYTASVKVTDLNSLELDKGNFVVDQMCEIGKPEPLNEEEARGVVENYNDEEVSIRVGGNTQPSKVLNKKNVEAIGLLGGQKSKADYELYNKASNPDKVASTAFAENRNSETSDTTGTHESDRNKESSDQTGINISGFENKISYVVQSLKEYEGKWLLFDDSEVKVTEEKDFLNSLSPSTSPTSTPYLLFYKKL
# T1 sequence (Q8TAF3 whole entry partner): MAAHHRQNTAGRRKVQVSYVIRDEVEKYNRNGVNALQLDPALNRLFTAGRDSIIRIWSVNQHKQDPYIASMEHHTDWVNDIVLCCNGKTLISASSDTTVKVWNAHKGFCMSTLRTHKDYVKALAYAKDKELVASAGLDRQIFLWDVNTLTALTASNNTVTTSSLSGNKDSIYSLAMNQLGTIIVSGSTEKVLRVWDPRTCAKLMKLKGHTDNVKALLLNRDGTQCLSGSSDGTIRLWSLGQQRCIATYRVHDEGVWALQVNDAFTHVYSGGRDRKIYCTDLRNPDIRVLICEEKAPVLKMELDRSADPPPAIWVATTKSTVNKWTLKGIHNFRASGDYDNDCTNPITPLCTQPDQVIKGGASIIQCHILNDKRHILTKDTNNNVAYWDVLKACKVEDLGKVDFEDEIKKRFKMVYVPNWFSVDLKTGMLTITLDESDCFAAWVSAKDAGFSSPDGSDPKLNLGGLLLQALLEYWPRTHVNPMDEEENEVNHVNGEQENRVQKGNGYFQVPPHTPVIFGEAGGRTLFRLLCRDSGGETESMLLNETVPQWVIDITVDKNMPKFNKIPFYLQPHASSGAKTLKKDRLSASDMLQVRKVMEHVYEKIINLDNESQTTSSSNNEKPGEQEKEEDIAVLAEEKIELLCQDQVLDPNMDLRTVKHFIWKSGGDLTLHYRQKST
row,IC50,Structure (SMILES)
1,≤ 100 nM,"CC(C)n1cc(C(F)(F)F)nc1-c1ccc2c(c1)CCCOc1ncnc(C3CC3)c1-c1ncc3ccc(=O)n(c3n1)C2 [Example 25, 1^6-cyclopropyl-4^4-(1-isopropyl-4-(trifluoromethyl)-1H-imidazol-2-yl)-2^7,2^8-dihydro-8-oxa-2(2,8)-pyrido[2,3-d]pyrimidina-1(5,4)-pyrimidina-4(1,2)-benzenacyclooctaphan-2^7-one]"
2,≤ 100 nM,"CC(C)n1cc(C(F)(F)F)nc1-c1ccc2c(c1)NCCCOc1cccc(C3CC3)c1-c1ncc3cnn(c3n1)C2 [Example 26, 1^6-cyclopropyl-4^4-(1-isopropyl-4-(trifluoromethyl)-1H-imidazol-2-yl)-2^1H-9-oxa-5-aza-2(6,1)-pyrazolo[3,4-d]pyrimidina-1,4(1,2)-dibenzenacyclononaphane]"
3,≤ 100 nM,"CC(C)n1cc(C(F)(F)F)nc1-c1ccc2c(c1)SCCOc1ncnc(C3CC3)c1-c1ncc3cnn(c3n1)C2 [Example 27, 1^6-cyclopropyl-4^4-(1-isopropyl-4-(trifluoromethyl)-1H-imidazol-2-yl)-2^1H-8-oxa-5-thia-2(6,1)-pyrazolo[3,4-d]pyrimidina-1(5,4)-pyrimidina-4(1,2)-benzenacyclooctaphane]"
4,≤ 100 nM,"CC(C)n1cc(C(F)(F)F)nc1-c1ccc2c(c1)COCCOc1ncnc(C3CC3)c1-c1ncc3cnn(c3n1)C2 [Example 28, 1^6cyclopropyl-4^4-(1-isopropyl-4-(trifluoromethyl)-1H-imidazol-2-yl)-2^1H-6,9-dioxa-2(6,1)-pyrazolo[3,4-d]pyrimidina-1(5,4)-pyrimidina-4(1,2)-benzenacyclononaphane]"
5,≤ 100 nM,"CC(C)n1cc(C(F)(F)F)nc1-c1ccc2cc1OCCOc1ncnc(C3CC3)c1-c1ncc3cnn(c3n1)C2 [Example 29, 1^6-cyclopropyl-44-(1-isopropyl-4-(trifluoromethyl)-1H-imidazol-2-yl)-2^1H-5,8-dioxa-2(6,1)-pyrazolo[3,4-d]pyrimidina-1(5,4)-pyrimidina-4(1,3)-benzenacyclooctaphane]"
6,≤ 100 nM,"CC(C)n1cc(C(F)(F)F)nc1-c1ccc2c(c1)/C=C/COc1ncnc(C3CC3)c1-c1ncc3cnn(c3n1)C2 [Example 30, (E)-1^6-cyclopropyl-4^4-(1-isopropyl-4-(trifluoromethyl)-1H-imidazol-2-yl)-2^1H-8-oxa-2(6,1)-pyrazolo[3,4-d]pyrimidina-1(5,4)-pyrimidina-4(1,2)-benzenacyclooctaphan-5-ene]"
7,≤ 100 nM,"CC(C)n1cc(C(F)(F)F)nc1-c1ccc2c(c1)OCCOc1ncnc(C3CC3)c1-c1ncc3ccc(n3n1)C2 [Example 31, (Z)-1^6-cyclopropyl-4^4-(1-isopropyl-4-(trifluoromethyl)-1H-imidazol-2-yl)-5,8-dioxa-2(2,7)-pyrrolo[2,1-f][1,2,4]triazina-1(5,4)-pyrimidina-4(1,2)-benzenacyclooctaphane]"
8,≤ 100 nM,"FC(F)(F)c1cn(C2CC2)c(-c2ccc3c(c2)CCCOc2ncnc(C4CC4)c2-c2ncc4ccc(n4n2)C3)n1 [Example 32, (Z)-1^6-cyclopropyl-4^4-(1-cyclopropyl-4-(trifluoromethyl)-1H-imidazol-2-yl)-8-oxa-2(2,7)-pyrrolo[2,1-f][1,2,4]triazina-1(5,4)-pyrimidina-4(1,2)-benzenacyclooctaphane]"
9,≤ 100 nM,"CC(C)n1cc(C(F)(F)F)nc1-c1ccc2c(c1)NCCCOc1ncnc(C3CC3)c1-c1ncc3ccc(n3n1)C2 [Example 33, (Z)-1^6-cyclopropyl-4^4-(1-isopropyl-4-(trifluoromethyl)-1H-imidazol-2-yl)-9-oxa-5-aza-2(2,7)-pyrrolo[2,1-f][1,2,4]triazina-1(5,4)-pyrimidina-4(1,2)-benzenacyclononaphane]"
10,≤ 100 nM,"Fc1cc2n3nc(ncc13)-c1c(ncnc1C1CC1)OCCOc1cc(-c3nc(C(F)(F)F)cn3C3CC3)ccc1C2 [Example 34, (Z)-1^6-cyclopropyl-4^4-(1-cyclopropyl-4-(trifluoromethyl)-1H-imidazol-2-yl)-2^5-fluoro-5,8-dioxa-2(2,7)-pyrrolo[2,1-f][1,2,4]triazina-1(5,4)-pyrimidina-4(1,2)-benzenacyclooctaphane]"
11,≤ 100 nM,"CC(C)n1cc(C(F)(F)F)nc1-c1ccc2c(c1)NCCCOc1ncnc(C3CC3)c1-c1ncc3ccn(c3n1)C2 [Example 35, 1^6-cyclopropyl-4^4-(1-isopropyl-4-(trifluoromethyl)-1H-imidazol-2-yl)-2^7H-9-oxa-5-aza-2(2,7)-pyrrolo[2,3-d]pyrimidina-1(5,4)-pyrimidina-4(1,2)-benzenacyclononaphane]"
12,≤ 100 nM,"FC(F)(F)c1cc(C2CC2)n(-c2ccc3c(c2)NCCCOc2c(ncnc2C2CC2)-c2ncc4cnn(c4n2)C3)n1 [Example 36, 1-cyclopropyl-4-(5-cyclopropyl-3-(trifluoromethyl)-1H-pyrazol-1-yl)-21H-9-oxa-5-aza-2(6,1)-pyrazolo[3,4-d]pyrimidina-1(5,4)-pyrimidina-4(1,2)-benzenacyclononaphane]"
13,≤ 100 nM,"CC(C)c1cc(C(F)(F)F)nn1-c1ccc2c(c1)NCCCOc1ncnc(C3CC3)c1-c1ncc3cnn(c3n1)C2 [Example 37, 16-cyclopropyl-44-(5-isopropyl-3-(trifluoromethyl)-1H-pyrazol-1-yl)-21H-9-oxa-5-aza-2(6,1)-pyrazolo[3,4-d]pyrimidina-1(5,4)-pyrimidina-4(1,2)-benzenacyclononaphane]"
14,≤ 100 nM,"CC(C)n1cc(C(F)(F)F)nc1-c1ccc2cc1OCCCOc1ncnc(C3CC3)c1-c1ncc3cnn(c3n1)C2 [Example 38, 1^6-cyclopropyl-4^4-(1-isopropyl-4-(trifluoromethyl)-1H-imidazol-2-yl)-2^1H-5,9-dioxa-2(6,1)-pyrazolo[3,4-d]pyrimidina-1(5,4)-pyrimidina-4(1,3)-benzenacyclononaphane]"
15,100 to 1000 nM,"FC(F)(F)c1cn(C2CC2)c(-c2ccc3c(c2)/C=C/COc2ncnc(C4CC4)c2-c2ncc4ccc(n4n2)C3)n1 [Example 39, (2^1Z,5E)-1^6-cyclopropyl-4^4-(1-cyclopropyl-4-(trifluoromethyl)-1H-imidazol-2-yl)-8-oxa-2(2,7)-pyrrolo[2,1-f][1,2,4]triazina-1(5,4)-pyrimidina-4(1,2)-benzenacyclooctaphan-5-ene]"
16,≤ 100 nM,"CC(C)n1cc(C(F)(F)F)nc1-c1ccc2cc1NCCOc1ncnc(C3CC3)c1-c1ncc3cnn(c3n1)C2 [Example 40, 1^6-cyclopropyl-4^4-(1-isopropyl-4-(trifluoromethyl)-1H-imidazol-2-yl)-2H-8-oxa-5-aza-2(6,1)-pyrazolo[3,4-d]pyrimidina-1(5,4)-pyrimidina-4(1,3)-benzenacyclooctaphane]"
17,≤ 100 nM,"FC(F)(F)c1cn(C2CC2)c(-c2ccc3c(c2)NCCCOc2ncnc(C4CC4)c2-c2ncc4ccc(n4n2)C3)n1 [Example 41, (Z)-1^6-cyclopropyl-4^4-(1-cyclopropyl-4-(trifluoromethyl)-1H-imidazol-2-yl)-9-oxa-5-aza-2(2,7)-pyrrolo[2,1-f][1,2,4]triazina-1(5,4)-pyrimidina-4(1,2)-benzenacyclononaphane]"
18,≤ 100 nM,"FC(F)(F)c1cn(C2CC2)c(-c2ccc3c(c2)NCCOc2ncnc(C4CC4)c2-c2ncc4ccc(n4n2)C3)n1 [Example 42, (Z)-1^6-cyclopropyl-4^4-(1-cyclopropyl-4-(trifluoromethyl)-1H-imidazol-2-yl)-8-oxa-5-aza-2(2,7)-pyrrolo[2,1-f][1,2,4]triazina-1(5,4)-pyrimidina-4(1,2)-benzenacyclooctaphane]"
19,100 to 1000 nM,CC(C)n1cc(C(F)(F)F)nc1-c1ccc2cc1C#CCCOc1ncnc(C3CC3)c1-c1ncc3cnn(c3n1)C2 [Example 43]
20,≤ 100 nM,"CC(C)n1cc(C(F)(F)F)nc1-c1ccc2cc1/C=C/CCOc1ncnc(C3CC3)c1-c1ncc3cnn(c3n1)C2 [Example 44, (E)-1^6-cyclopropyl-4^4-(1-isopropyl-4-(trifluoromethyl)-1H-imidazol-2-yl)-2^1H-9-oxa-2(6,1)-pyrazolo[3,4-d]pyrimidina-1(5,4)-pyrimidina-4(1,3)-benzenacyclononaphan-5-ene]"
21,≤ 100 nM,"CC(C)n1cc(C(F)(F)F)nc1-c1ccc2cc1CCCCOc1ncnc(C3CC3)c1-c1ncc3cnn(c3n1)C2 [Example 45, 1^6-cyclopropyl-4^4-(1-isopropyl-4-(trifluoromethyl)-1H-imidazol-2-yl)-2^1H-9-oxa-2(6,1)-pyrazolo[3,4-d]pyrimidina-1(5,4)-pyrimidina-4(1,3)-benzenacyclononaphane]"
22,≤ 100 nM,"CC(C)n1cc(C(F)(F)F)nc1-c1ccc2cc1/C=C\CCOc1ncnc(C3CC3)c1-c1ncc3cnn(c3n1)C2 [Example 46, (Z)-1^6-cyclopropyl-4^4-(1-isopropyl-4-(trifluoromethyl)-1H-imidazol-2-yl)-2^1H-9-oxa-2(6,1)-pyrazolo[3,4-d]pyrimidina-1(5,4)-pyrimidina-4(1,3)-benzenacyclononaphan-5-ene]"
23,≤ 100 nM,FC(F)(F)c1cn(C2CC2)c(-c2ccc3cc2CCCCOc2ncnc(C4CC4)c2-c2ncc4ccc(n4n2)C3)n1 [Example 47]
24,100 to 1000 nM,"CC(C)n1cc(C(F)(F)F)nc1-c1ccc2cc1OCCCCOc1ncnc(C3CC3)c1-c1ncc3cnn(c3n1)C2 [Example 48, 1^6-cyclopropyl-4^4-(1-isopropyl-4-(trifluoromethyl)-1H-imidazol-2-yl)-2^1H-5,10-dioxa-2(6,1)-pyrazolo[3,4-d]pyrimidina-1(5,4)-pyrimidina-4(1,3)-benzenacyclodecaphane]"
25,≤ 100 nM,"CC(C)n1cc(C(F)(F)F)nc1-c1ccc2cc1OCCCOc1ncnc(C3CC3)c1-c1ncc3ccc(=O)n(c3n1)C2 [Example 49, 1^6-cyclopropyl-4^4-(1-isopropyl-4-(trifluoromethyl)-1H-imidazol-2-yl)-2^7,2^8-dihydro-5,9-dioxa-2(2,8)-pyrido[2,3-d]pyrimidina-1(5,4)-pyrimidina-4(1,3)-benzenacyclononaphan-27-one]"
